In data set [1] the target is NTR1 (Homo sapiens, UniProt P30989). Nature of the data set: NTR1 high-content imaging (HCS) dose response, NTR1-U2OS cells. The note with it: n = 4 unless otherwise noted. In kind it is cell-based. More on the design: host or cells: U2OS osteosarcoma. The text has this: The cell lines utilized in the high-content imaging assays, which include the NTR1-, NTR2-, and GPR35-U2OS osteosarcomas, were obtained from the laboratory of Dr. Lawrence Barak at the Duke University Medical Center. The media used in the culture of the cell lines, as well as the assays themselves, consisted of Minimum Essential Medium (15-010-CM) and L-glutamine (25-005-CL) from Cellgro/Mediatech (Manassas, Va.), fetal bovine serum (SH30396.03) from Hyclone (Logan, Utah), penicillin-streptomycin solution (PS-20) from Omega Scientific in Tarzana, Calif., G418 (ant-gn-1) from Invivogen (San Diego, Calif.), and zeocin (R250-01) from Invitrogen (Carlsbad, Calif.). Cell lines were cultured in T225 tissue culture flasks (431082) supplied by Corning (Corning, N.Y.). Additional reagents employed include Dulbecco's Phosphate-Buffered Saline (DPBS) (21-031CV) from Cellgro/Mediatech, Trypsin-EDTA 0.05% (25300) from Invitrogen, paraformaldehyde (30528954) from Acros Organics (Geel, Belgium), Hoechst 33342 (H3570) from Invitrogen. The high-content assays were run in 1536-well plates (29326) supplied by Aurora Biotechnology (Poway, Calif.) and utilized aluminum plate seals (T592100) from E&K Scientific (Santa Clara, Calif.).
Sequence of NTR1 (P30989 whole entry, species assumed): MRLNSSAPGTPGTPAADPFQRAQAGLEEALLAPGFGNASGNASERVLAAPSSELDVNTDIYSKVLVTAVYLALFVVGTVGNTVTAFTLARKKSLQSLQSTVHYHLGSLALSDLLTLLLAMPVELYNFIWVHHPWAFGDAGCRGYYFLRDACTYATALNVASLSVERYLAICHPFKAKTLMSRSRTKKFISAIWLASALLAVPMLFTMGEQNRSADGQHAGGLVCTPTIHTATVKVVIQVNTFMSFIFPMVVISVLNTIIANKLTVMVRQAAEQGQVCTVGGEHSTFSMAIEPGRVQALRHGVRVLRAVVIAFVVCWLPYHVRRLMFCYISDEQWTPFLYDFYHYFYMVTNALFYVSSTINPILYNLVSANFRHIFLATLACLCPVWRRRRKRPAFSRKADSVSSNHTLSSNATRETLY
The neurotensin 1 peptide (N6383) from Sigma-Aldrich (St. Louis, Mo.) was used as a positive control in the NTR1 primary HCS assay. For the NTR2 selectivity assay, the non-specific, small molecule 3-(4-fluorophenyl)-7,8-dimethoxy-5-(4-methylbenzyl)-5H-pyrazolo[4,3-c]quinolone which was synthesized internally was used as a positive control. The GPR35 selectivity screen utilized zaprinast (ALX430-020-M010) from Alexis Biochemicals (Farmingdale, N.Y.) as a control.
The high-content imaging based NTR1 primary screen in 1536-well format was utilized to assay the MLSMR library of chemical entities in the following manner. On day one, 4 uL of a cell suspension containing 350,000 NTR1-U2OS cells per mL is added to each well of a 1536-well assay plate. Cells are plated in MEM medium containing 2.5% Fetal Bovine Serum, 1% Penicillin/Streptomycin solution, 1% L-Glutamine, 400 ug/mL G418, and 200 ug/mL Zeocin. The assay plates are then incubated overnight at 37° C., under 5% CO2. Following the overnight incubation, a volume of 60 nL of the compounds at 2 mM in DMSO (final 20 μM, 1% DMSO) was transferred to columns 5-48 of the assay plates using a LabCyte Echo Liquid Handler. Next, 60 nL of DMSO were dispensed to columns 1-4, which served as the positive and neutral control wells. […] The assay plates were centrifuged on an Eppendorf 5810 centrifuge at 1000 rpm for 1 min to ensure even liquid levels in the wells of the assay plates. The assay plates were then returned to the incubator for 1 hour. Following the hour-long incubation at 37° C., the cells in each well were fixed with 4 uL of 6% paraformaldehyde added with a Multidrop Combi. The assay plates were centrifuged as before and incubated at room temperature for 1 hour. On the Kalypsys, plates were then aspirated down to 2.5 uL per well and washed twice with 11 uL per well of DPBS, followed by a final aspiration to 2.5 uL per well. On the Combi dispenser, 5 uL of 5 ug/mL Hoechst 33342 diluted in DPBS was added to each well of assay plates. The plates were again centrifuged as previously described, sealed, and incubated for at least 1 hour prior to being loaded on a PerkinElmer Opera QEHS.
Image acquisition was performed with a 45 plate capacity loader/stacker and the following settings: 40×0.6 NA air objective, acquisition camera set to 2-by-2 binning for an image size of 688 by 512 pixels, beta-arrestin-GFP acquired using 488 nm laser excitation and 540/75 nm emission filters, DAPI (nuclei) using 365 nm Xenon lamp excitation and 450/50 nm emission filters, 3 fields per well. Image analysis was performed using the Acapella Spot Detection Algorithm. For analysis settings and the metrics employed in the data analyses, please refer to supplemental information.

Data set [2] is described as follows: Aqueous solubility, direct UV kinetic solubility method. In kind it is physicochemical. On the procedure: The aqueous solubility of the compound was determined using a direct UV kinetic solubility method (Avdeef, A. 2001. Physicochemical profiling (solubility, permeability and charge state). Curr Top Med Chem 1:277-351) in a 96-well format at pH 5.0, 6.2 and 7.4. Compounds (250 μM) were incubated for 18.0h at room temperature to achieve equilibrium, and then filtered to remove any precipitate. The concentration of the compound in solution was measured by UV absorbance (250-498 nm) and compared to the spectra of precipitation-free reference solutions. Spectroscopically pure 1-Propanol (Sigma, St Louis, Mo.) was used as a cosolvent to suppress precipitation in the reference solutions. The solubility of each compound was determined using μSOL Evolution Plus software v3.2 (pION Inc) and is expressed as the concentration (μg/mL) of a solute in a saturated solution

The nature of data set [3]: Metabolic stability in mouse hepatic microsomes. In kind it is in vitro ADME. The procedure: (§1) Hepatic metabolic stability was determined using established protocols (Di, L., Kerns, E. H., Hong, Y., Kleintop, T. A., McConnell, O. J., and Huryn, D. M. 2003. Optimization of a higher throughput microsomal stability screening assay for profiling drug discovery candidates. J Biomol Screen 8:453-462). Briefly, the compound (1.0 and 10.0 μM) was preincubated for 10 min at 37° C. in potassium phosphate buffer (pH 7.4) together with 0.5 mg/mL mouse or human hepatic microsomes (Xenotech, Kansas City). The cofactor mixture comprising NADP, G6P, and G6P-DH (BD Biosciences) was added, and aliquots were taken after 0 and 60 min. Samples were analyzed on an Acquity UPLC, coupled with a sample organizer, and interfaced with a triple quadrupole ABI 4000 LC/MS/MS using the methodology described above. The percentage of the compound remaining after a 60 min incubation period was calculated according the following equation: [(area at time 60 min)/(area at time 0 min)]×100%.

Data set [4] is described as follows: Metabolic stability in human hepatic microsomes. Format: in vitro ADME. On the procedure: as §1
The target in data set [5] is T1, MOR (Homo sapiens, UniProt P35372).
T1 construct: Panlabs/Ricerca (contract panel)
T1 sequence (P35372 whole entry): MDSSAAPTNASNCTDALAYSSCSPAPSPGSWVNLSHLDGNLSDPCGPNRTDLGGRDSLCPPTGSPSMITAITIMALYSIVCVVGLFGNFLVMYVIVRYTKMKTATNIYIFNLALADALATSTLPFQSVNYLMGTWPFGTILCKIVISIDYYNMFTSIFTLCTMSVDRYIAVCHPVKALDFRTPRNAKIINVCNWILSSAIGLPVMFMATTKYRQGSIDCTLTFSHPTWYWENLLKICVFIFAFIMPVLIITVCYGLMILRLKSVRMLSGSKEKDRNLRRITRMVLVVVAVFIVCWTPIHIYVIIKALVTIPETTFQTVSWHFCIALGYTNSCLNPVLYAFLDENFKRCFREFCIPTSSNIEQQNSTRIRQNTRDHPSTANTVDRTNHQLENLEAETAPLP
Nature of the data set: Panlabs/Ricerca lead profiling panel, MOR. In kind it is binding. The conditions noted are these: @ 10 μM. The source says: However, these activities in in vitro binding assays may not translate into functional modulation of these receptors.

The structures appear in SMILES notation. Where two headings read alike, the source gives them in different places. Bounds are passed on as bounds.

The EC50 is the midpoint of the concentration-response curve. Usually Emax stands for the size of the effect at its maximum, as opposed to the concentration needed. By solubility is commonly meant the concentration that dissolves in the medium under given conditions. Regarding `COc1cc2nc(C3CC3)nc(N3CCN(c4ccccc4OC)CC3)c2cc1OC` [Compound 315, 2-cyclopropyl-6,7-dimethoxy-4-(4-(2-methoxyphenyl)piperazin-1-yl)quinazoline], in data set [1] (Ave. ± S.E.M., read-out: HCS NTR1 Potency EC50), the EC50 stood at 2 ± 0.1 µM. Besides, the Emax in data set [1] (read-out: HCS NTR1 Potency Emax) amounted to 105%. In addition, the solubility at 18 h is 0.45 µg/mL in data set [2] (1x PBS, pH 7.4, aqueous buffer, kinetic from dmso stock, read-out: Aqueous Solubility in 1x PBS, pH 7.4); 1.2 µM in data set [2] (pH 7.4, molar units, read-out: Aqueous Solubility in pION's buffer); more than 297 µM in data set [2] (pION's buffer, aqueous buffer, kinetic from dmso stock, pH 5.0, molar units, read-out: Aqueous Solubility in pION's buffer); more than 125 µg/mL in data set [2] (pION's buffer, aqueous buffer, kinetic from dmso stock, pH 5.0, read-out: Aqueous Solubility in pION's buffer); 0.52 µg/mL in data set [2] (pION's buffer, pH 7.4, aqueous buffer, kinetic from dmso stock, read-out: Aqueous Solubility in pION's buffer). The “Aqueous Solubility in 1x PBS, pH 7.4” value in data set [2] (1x PBS, pH 7.4, molar units) is on record as 1.1 μM. The “Aqueous Solubility in pION's buffer” value in data set [2] (pH 6.2) stood at 9.0 μg/mL. Moreover, the “Hepatic Microsome Stability (% Remaining at 1 hr)” value in data set [3] stood at 0.16%; in data set [4], 1.36%. Further, the “metabolism in vitro with liver homogenates” value in data set [3] and in data set [4] was “metabolized rapidly” throughout. Further, the “activity at MOR” value in data set [5] worked out at 86%.

Values taken from patent publication US9868707B2, “Small molecule agonists of neurotensin receptor 1” (SANFORD-BURNHAM MEDICAL RESEARCH INSTITUTE, priority 2012, dated 2018).
